Tests used:
Type in all cases: biochemical
Human recombinant MMP-9 = biological target: T1, Human recombinant MMP-9 (Homo sapiens, UniProt P14780); assay: In vitro MMP inhibition assay, MMP-9 (fluorogenic peptide substrate cleavage, Ki); conditions: human MMP-9, full length (FL); read-out: hMMP Ki 09/FL
T1 construct: made in house; host or cells: MMP-9-transfected HT1080 cells
Protocol: (§1) Matrix Metalloproteinase inhibitor compounds were analyzed in in vitro MMP Inhibition assays to determine their ability to inhibit the MMP cleavage of peptide substrates. Inhibition constants (Ki) were calculated from the assayed compound-MMP interactions.
(§2) Human recombinant MMP-1, MMP-2, MMP-3, MMP-7, MMP-9, MMP-12, MMP-13, MMP-14 and MMP-15 were used in these assays. The enzymes are prepared following known laboratory procedures. Protocols for the preparation and use of these enzymes are available in the scientific literature. See, e.g., Enzyme Nomenclature (Academic Press, San Diego, Calif., 1992) and the citations therein. See also Frije et al., J. Biol. Chem., 26(24), 16766-73 (1994).
(§3) The MMP-1 proenzyme may be purified from spent media of MMP-1-transfected HT-1080 cells and the protein purified on a zinc chelating column. The MMP-2 proenzyme may be purified by gelatin Sepharose chromatography from MMP-2-transfected p2AHT2 cells. […]
(§4) The inhibitors are analyzed using a single low enzyme concentration with a single substrate concentration fixed at or below the Km. […] Apparent inhibitory constants are determined by non-linear regression of reaction velocity as a function of inhibitor and enzyme concentration using Morrison's equation, as described by Kuzmic, Anal. Biochem. 286, 45-50 (2000). […]

Human recombinant MMP-1 = biological target: T2, Human recombinant MMP-1 (Homo sapiens, UniProt P03956); assay: In vitro MMP inhibition assay, MMP-1 (fluorogenic peptide substrate cleavage, Ki); conditions: human MMP-1, full length (FL); read-out: hMMP Ki 01/FL
T2 construct: made in house; host or cells: MMP-1-transfected HT-1080 cells
T2 sequence (P03956 100-469): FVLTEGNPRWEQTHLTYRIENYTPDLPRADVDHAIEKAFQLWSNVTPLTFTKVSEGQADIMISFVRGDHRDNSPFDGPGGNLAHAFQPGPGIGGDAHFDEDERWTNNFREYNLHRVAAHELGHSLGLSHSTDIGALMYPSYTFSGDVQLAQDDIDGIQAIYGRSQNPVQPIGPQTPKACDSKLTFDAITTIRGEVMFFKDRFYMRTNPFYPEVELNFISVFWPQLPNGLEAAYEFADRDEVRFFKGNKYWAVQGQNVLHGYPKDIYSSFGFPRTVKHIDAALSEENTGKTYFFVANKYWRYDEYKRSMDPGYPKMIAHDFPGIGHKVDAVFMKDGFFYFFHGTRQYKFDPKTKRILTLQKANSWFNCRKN
Protocol: as §1, §2, §3, §4

Human recombinant MMP-15 = biological target: T3, Human recombinant MMP-15 (Homo sapiens, UniProt P51511); assay: In vitro MMP inhibition assay, MMP-15 catalytic domain (fluorogenic peptide substrate cleavage, Ki); conditions: human MMP-15, catalytic domain (CD); read-out: hMMP Ki 15/CD
T3 construct: The catalytic domain of MMP-12 and MMP-15 enzymes were purchased commercially for these assays; purchased
Protocol: as §1, §2
The catalytic domain of MMP-12 and MMP-15 enzymes were purchased commercially for these assays.
The fluorogenic, methoxycoumarin-containing polypeptide substrate MCA-ArgProLeuGlyLeuDpaAlaArgGluArgNH2 was used as the MMP substrate in the MMP inhibition assays for human recombinant MMP-1, MMP-2, MMP-7, MMP-9, MMP-12, MMP-13, MMP-14 and MMP-15. Here, “MCA” is 7-methoxycoumarin-4-yl acetyl and “Dpa” is 3-(2,4-dinitrophenyl)-L-2,3-di-aminopropionyl group. In the absence of MMP inhibitory activity, the substrate is cleaved at the Gly-Leu peptide bond. The cleavage separates the highly fluorogenic peptide from the 2,4-dinitrophenyl quencher, resulting in an increase of fluorescent intensity.
For the human MMP-1, MMP-2, MMP-7, MMP-9, MMP-12, MMP-13, MMP-14 and MMP-15 assays, dilutions of the inhibitors (or salts thereof) were prepared in 100% dimethyl sulfoxide (DMSO). The stock solutions were diluted in Buffer A (100 mM Tris-HCl, 100 mM NaCl, 10 mM CaCl2, 0.005% polyoxyethylene 23 lauryl ether, pH 7.5) to obtain solutions with different compound concentrations, i.e., assay solutions with different concentrations of the assayed MMP inhibitory compound in 1% DMSO. The experiment controls contained the same amount of Buffer A/DMSO as the assayed sample, but contained no inhibitor.
To determine Ki, the inhibitor samples are incubated at room temperature for 1 hr in the presence of enzyme and then 4 μM of appropriate MMP substrate was added, and samples were analyzed on a Tecan SpectraFlour Plus plate reader. The excitation wavelength is 330 nm, and the emission (fluorescence) wavelength is 420 nm. In the absence of MMP inhibitory activity, the substrate is cleaved at the Gly-Leu bond resulting in an increase of relative fluorescence. Inhibition is observed as a reduced rate of increase in relative fluorescence.
The inhibitors are analyzed using a single low enzyme concentration with a single substrate concentration fixed at or below the Km. This protocol is a modification of method by Knight et al., FEBS Lett., 296(3), 263-266 (1992). Apparent inhibitory constants are determined by non-linear regression of reaction velocity as a function of inhibitor and enzyme concentration using Morrison's equation, as described by Kuzmic, Anal. Biochem. 286, 45-50 (2000). Modifications were made in the non-linear regression method to allow a common control reaction rate and effective enzyme concentration to be shared between all dose-response relationships on a given assay plate. Since the substrate concentration was chosen to be at or below the Km, the apparent Ki's from this analysis were reported as Ki's without correction for the influence of substrate.

Measured: Ki

T3 sequence (P51511 132-304 limits assumed): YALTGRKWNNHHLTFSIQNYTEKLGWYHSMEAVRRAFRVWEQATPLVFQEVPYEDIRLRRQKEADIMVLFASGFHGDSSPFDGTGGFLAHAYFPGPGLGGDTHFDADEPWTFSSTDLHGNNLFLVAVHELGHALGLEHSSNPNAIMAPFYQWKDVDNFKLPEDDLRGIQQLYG
T1 sequence (P14780 107-707 limits assumed): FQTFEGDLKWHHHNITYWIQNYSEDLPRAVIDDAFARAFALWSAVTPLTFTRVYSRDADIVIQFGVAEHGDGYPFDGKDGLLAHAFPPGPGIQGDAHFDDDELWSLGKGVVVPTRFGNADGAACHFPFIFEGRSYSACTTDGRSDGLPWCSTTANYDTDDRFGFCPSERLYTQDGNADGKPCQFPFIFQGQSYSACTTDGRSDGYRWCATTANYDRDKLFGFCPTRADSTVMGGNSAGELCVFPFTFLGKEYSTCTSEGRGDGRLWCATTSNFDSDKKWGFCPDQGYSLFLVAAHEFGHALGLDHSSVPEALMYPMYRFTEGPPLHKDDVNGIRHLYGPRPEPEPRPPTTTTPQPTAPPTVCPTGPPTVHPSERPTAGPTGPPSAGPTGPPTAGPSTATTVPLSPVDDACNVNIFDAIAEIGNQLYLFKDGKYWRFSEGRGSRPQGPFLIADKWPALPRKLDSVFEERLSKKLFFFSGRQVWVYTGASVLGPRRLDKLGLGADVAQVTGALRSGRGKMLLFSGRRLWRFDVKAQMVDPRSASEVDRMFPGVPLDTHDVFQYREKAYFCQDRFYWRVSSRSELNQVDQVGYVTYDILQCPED

COc1cccc(CNC(=O)c2nc3ccc(F)c(OCCC4CCN(C(=O)CO)CC4)c3c(=O)[nH]2)c1 [Example 34, 6-fluoro-5-[2-(1-glycoloylpiperidin-4-yl)ethoxy]-N-(3-methoxybenzyl)-4-oxo-3,4-dihydroquinazoline-2-carboxamide]
> 10 µM: all assays above
